Data published in paper PMC8550792, “Evolution of kinase polypharmacology across HSP90 drug discovery” (Cell Chemical Biology, 2021).

Key:
ABL1 [1] = molecular target: ABL1; design: method as in Becher et al., 2013; settings: chemoproteomics; ref Becher et al., 2013; read-out: Kd,app (ATP-Mg), ABL1; cited from earlier work
DDR1 [2] = molecular target: DDR1; design: method as in Becher et al., 2013; settings: chemoproteomics; ref Becher et al., 2013; read-out: Kd,app (ATP-Mg), DDR1; cited from earlier work
ABL2 = molecular target: ABL2; design: method as in Becher et al., 2013; settings: chemoproteomics; ref Becher et al., 2013; read-out: Kd,app (ATP-Mg), ABL2; cited from earlier work
[3] = molecular target: human 3-methyl-2-oxobutanoate dehydrogenase kinase (BCKDHK); design: method as in Besant et al., 2002; settings: ref Besant et al., 2002; cited from earlier work
YES/YES1 = molecular target: T1, YES/YES1 (Homo sapiens, UniProt P07947); test: HotSpot in vitro kinase radiometric assay; type: biochemical; settings: YES/YES1; 10uM; ATP 50 uM; Data 1, Data 2; read-out: % Enzyme Activity (relative to DMSO controls)
T1 construct: purchased Reaction Biology (HotSpot contract assay)
T1 sequence (P07947 whole entry): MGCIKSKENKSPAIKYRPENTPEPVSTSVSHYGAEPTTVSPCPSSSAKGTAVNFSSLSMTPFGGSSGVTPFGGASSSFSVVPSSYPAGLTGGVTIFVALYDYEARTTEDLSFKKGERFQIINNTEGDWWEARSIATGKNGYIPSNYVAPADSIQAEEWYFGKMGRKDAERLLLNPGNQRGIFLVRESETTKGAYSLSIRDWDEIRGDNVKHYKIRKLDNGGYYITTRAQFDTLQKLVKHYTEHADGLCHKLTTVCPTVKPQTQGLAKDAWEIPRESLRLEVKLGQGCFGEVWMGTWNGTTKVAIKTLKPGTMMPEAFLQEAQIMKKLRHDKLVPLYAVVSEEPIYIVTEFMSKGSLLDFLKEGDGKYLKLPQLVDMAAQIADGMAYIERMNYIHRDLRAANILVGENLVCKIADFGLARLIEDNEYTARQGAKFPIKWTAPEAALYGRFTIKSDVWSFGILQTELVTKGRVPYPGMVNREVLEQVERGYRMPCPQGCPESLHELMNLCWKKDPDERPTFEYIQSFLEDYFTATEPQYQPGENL

[4] = molecular target: human pyruvate dehydrogenase kinases; design: method as in Kato et al., 2007; settings: ref Kato et al., 2007; cited from earlier work
TRKC = molecular target: T2, TRKC (Homo sapiens, UniProt Q16288); test: HotSpot in vitro kinase radiometric assay; type: biochemical; settings: TRKC; 10uM; ATP 100 uM; Data 1, Data 2; read-out: % Enzyme Activity (relative to DMSO controls)
T2 construct: purchased Reaction Biology (HotSpot contract assay)
T2 sequence (Q16288 32-839): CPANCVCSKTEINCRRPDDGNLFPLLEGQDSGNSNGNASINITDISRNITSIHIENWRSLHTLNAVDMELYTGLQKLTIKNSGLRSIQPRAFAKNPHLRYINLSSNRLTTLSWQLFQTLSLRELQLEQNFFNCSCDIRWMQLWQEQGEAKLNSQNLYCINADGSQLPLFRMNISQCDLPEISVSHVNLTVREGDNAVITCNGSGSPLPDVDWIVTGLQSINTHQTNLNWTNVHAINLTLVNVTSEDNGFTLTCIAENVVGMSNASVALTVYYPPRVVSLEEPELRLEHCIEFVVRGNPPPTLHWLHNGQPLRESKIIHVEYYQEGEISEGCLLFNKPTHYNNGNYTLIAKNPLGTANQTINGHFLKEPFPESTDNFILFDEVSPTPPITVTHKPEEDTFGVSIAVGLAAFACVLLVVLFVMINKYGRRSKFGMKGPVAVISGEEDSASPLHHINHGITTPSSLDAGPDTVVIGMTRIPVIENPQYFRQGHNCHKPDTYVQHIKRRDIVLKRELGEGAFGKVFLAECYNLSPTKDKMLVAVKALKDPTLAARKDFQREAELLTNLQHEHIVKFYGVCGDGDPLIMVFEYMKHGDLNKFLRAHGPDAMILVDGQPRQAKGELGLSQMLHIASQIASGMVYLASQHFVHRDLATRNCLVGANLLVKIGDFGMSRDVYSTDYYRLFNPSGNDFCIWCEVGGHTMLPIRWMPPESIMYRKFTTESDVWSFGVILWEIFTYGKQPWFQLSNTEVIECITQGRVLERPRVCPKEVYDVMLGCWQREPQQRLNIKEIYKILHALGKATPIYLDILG

ABL1 [5] = molecular target: ABL1 (Homo sapiens, UniProt P00519); test: HotSpot in vitro kinase radiometric assay; type: biochemical; design: purchased Reaction Biology (HotSpot contract assay); settings: ABL1; 10uM; ATP 40 uM; Data 1, Data 2; read-out: % Enzyme Activity (relative to DMSO controls)
16-kinase panel = 16-kinase panel screening, in vitro radiometric assay; type: biochemical, human; settings: 10 μM
ABL2/ARG = molecular target: T3, ABL2/ARG (Homo sapiens, UniProt P42684); test: HotSpot in vitro kinase radiometric assay; type: biochemical; settings: ABL2/ARG; 10uM; ATP 30 uM; Data 1, Data 2; read-out: % Enzyme Activity (relative to DMSO controls)
T3 construct: purchased Reaction Biology (HotSpot contract assay)

FYN = molecular target: T4, FYN (Homo sapiens, UniProt P06241); test: HotSpot in vitro kinase radiometric assay; type: biochemical; settings: FYN; 10uM; ATP 30 uM; Data 1, Data 2; read-out: % Enzyme Activity (relative to DMSO controls)
T4 construct: purchased Reaction Biology (HotSpot contract assay)

PASK = molecular target: T5, PASK (Homo sapiens, UniProt Q96RG2); test: HotSpot in vitro kinase radiometric assay; type: biochemical; settings: PASK; 10uM; ATP 50 uM; Data 1, Data 2; read-out: % Enzyme Activity (relative to DMSO controls)
T5 construct: purchased Reaction Biology (HotSpot contract assay)
Text: (§1) Accordingly, we selected five additional representative HSP90 inhibitors, at least one from each chemical class, including both synthetic inhibitors and natural products.
(§2) Accordingly, we screened the hit compound and the two leads for kinase off-target inhibition using the 16-kinase panel and the same in vitro catalytic assay used previously.
(§3) This radioisotope binding assay was designed to directly detect the true product without the use of modified substrates, coupling enzymes, or detection antibodies thus enabling to directly measure inhibition of catalytic activity. Test or control compounds were incubated with kinase, substrate, cofactors, and radioisotope-labeled ATP (32P-ɣ-ATP or 33P-ɣ-ATP). The reaction mixtures were then spotted onto filter papers, which bind the radioisotope-labeled catalytic product.

TRKA = molecular target: T6, TRKA (Homo sapiens, UniProt P04629); test: HotSpot in vitro kinase radiometric assay; type: biochemical; settings: TRKA; 10uM; ATP 100 uM; Data 1, Data 2; read-out: % Enzyme Activity (relative to DMSO controls)
T6 construct: purchased Reaction Biology (HotSpot contract assay)
T6 sequence (P04629 33-796): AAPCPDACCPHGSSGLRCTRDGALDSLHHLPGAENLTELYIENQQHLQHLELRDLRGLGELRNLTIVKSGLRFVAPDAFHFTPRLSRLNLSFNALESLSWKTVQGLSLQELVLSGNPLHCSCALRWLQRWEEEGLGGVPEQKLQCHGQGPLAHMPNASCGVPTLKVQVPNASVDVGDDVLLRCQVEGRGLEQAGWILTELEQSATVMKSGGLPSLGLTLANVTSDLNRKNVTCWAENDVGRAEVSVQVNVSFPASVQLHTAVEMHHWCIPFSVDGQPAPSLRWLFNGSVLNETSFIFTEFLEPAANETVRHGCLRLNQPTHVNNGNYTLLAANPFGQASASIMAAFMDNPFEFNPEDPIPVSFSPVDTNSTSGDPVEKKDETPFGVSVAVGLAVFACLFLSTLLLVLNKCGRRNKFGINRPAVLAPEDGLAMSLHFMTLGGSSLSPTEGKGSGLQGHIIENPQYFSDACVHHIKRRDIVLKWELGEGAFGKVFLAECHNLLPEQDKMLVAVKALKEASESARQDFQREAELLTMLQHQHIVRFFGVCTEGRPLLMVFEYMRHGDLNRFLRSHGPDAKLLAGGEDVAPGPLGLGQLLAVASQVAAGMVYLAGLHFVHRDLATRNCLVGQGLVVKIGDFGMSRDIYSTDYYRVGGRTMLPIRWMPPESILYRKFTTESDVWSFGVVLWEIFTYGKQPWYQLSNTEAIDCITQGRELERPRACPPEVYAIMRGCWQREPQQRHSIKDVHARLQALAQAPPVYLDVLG
Text: as §1, §2, §3

[6] = molecular target: bacterial sensor kinase PhoQ; design: method as in Guarnieri et al., 2008; settings: ref Guarnieri et al., 2008; cited from earlier work
LCK = molecular target: T7, LCK (Homo sapiens, UniProt P06239); test: HotSpot in vitro kinase radiometric assay; type: biochemical; settings: LCK; 10uM; ATP 15 uM; Data 1, Data 2; read-out: % Enzyme Activity (relative to DMSO controls)
T7 construct: purchased Reaction Biology (HotSpot contract assay)
T7 sequence (P06239 whole entry): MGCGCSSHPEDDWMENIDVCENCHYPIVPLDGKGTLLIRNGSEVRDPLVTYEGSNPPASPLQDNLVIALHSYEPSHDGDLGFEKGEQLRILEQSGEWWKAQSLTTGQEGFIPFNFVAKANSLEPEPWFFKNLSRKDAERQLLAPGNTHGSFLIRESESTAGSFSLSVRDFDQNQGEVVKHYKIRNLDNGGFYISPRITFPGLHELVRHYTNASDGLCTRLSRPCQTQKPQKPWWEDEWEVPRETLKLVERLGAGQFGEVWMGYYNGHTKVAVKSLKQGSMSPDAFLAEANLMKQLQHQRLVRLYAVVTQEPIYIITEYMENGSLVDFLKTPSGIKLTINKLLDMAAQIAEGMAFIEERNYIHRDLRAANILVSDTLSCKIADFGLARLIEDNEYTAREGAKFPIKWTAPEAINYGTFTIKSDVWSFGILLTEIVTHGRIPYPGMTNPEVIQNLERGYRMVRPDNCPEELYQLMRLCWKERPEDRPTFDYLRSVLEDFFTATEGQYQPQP

FGR = molecular target: T8, FGR (Homo sapiens, UniProt P09769); test: HotSpot in vitro kinase radiometric assay; type: biochemical; settings: FGR; 10uM; ATP 50 uM; Data 1, Data 2; read-out: % Enzyme Activity (relative to DMSO controls)
T8 construct: purchased Reaction Biology (HotSpot contract assay)

PEAK1 = molecular target: T9, PEAK1 (Homo sapiens, UniProt Q9H792); test: HotSpot in vitro kinase radiometric assay; type: biochemical; settings: PEAK1; 10uM; ATP 30 uM; Data 1, Data 2; read-out: % Enzyme Activity (relative to DMSO controls)
T9 construct: purchased Reaction Biology (HotSpot contract assay)

DDR1 [7] = molecular target: DDR1 (Homo sapiens, UniProt Q08345); test: HotSpot in vitro kinase radiometric assay; type: biochemical; design: purchased Reaction Biology (HotSpot contract assay); settings: DDR1; 10uM; ATP 100 uM; Data 1, Data 2; read-out: % Enzyme Activity (relative to DMSO controls)
Sequence of DDR1 (Homo sapiens, UniProt Q08345) (Q08345 19-913): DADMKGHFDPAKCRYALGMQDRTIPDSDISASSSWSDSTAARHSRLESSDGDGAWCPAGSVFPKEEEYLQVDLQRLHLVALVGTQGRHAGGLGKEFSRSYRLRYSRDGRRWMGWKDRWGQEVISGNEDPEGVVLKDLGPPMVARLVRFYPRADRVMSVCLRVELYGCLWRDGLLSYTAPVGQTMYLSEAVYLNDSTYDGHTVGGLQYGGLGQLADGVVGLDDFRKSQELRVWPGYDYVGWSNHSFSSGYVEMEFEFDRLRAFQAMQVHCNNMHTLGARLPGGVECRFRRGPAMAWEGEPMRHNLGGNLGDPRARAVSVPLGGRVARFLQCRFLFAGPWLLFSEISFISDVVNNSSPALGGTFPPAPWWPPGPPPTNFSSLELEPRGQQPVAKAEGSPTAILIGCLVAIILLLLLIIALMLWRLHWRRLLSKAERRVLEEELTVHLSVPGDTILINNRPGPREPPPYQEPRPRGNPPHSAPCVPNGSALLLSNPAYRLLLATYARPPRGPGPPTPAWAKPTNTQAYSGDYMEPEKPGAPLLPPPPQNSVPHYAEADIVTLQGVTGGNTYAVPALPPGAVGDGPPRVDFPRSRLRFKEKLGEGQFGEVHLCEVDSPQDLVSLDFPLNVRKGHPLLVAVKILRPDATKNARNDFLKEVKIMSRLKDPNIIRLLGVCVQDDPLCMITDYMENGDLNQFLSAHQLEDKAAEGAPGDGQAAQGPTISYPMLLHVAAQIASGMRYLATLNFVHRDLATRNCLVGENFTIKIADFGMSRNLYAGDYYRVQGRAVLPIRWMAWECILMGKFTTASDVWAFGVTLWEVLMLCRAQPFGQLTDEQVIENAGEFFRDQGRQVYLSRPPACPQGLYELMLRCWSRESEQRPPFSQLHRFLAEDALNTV

LYN B = molecular target: T10, LYN B (Homo sapiens, UniProt P07948); test: HotSpot in vitro kinase radiometric assay; type: biochemical; settings: LYN B; 10uM; ATP 20 uM; Data 1, Data 2; read-out: % Enzyme Activity (relative to DMSO controls)
T10 construct: purchased Reaction Biology (HotSpot contract assay)
T10 sequence (P07948 1-491 isoform P07948-2): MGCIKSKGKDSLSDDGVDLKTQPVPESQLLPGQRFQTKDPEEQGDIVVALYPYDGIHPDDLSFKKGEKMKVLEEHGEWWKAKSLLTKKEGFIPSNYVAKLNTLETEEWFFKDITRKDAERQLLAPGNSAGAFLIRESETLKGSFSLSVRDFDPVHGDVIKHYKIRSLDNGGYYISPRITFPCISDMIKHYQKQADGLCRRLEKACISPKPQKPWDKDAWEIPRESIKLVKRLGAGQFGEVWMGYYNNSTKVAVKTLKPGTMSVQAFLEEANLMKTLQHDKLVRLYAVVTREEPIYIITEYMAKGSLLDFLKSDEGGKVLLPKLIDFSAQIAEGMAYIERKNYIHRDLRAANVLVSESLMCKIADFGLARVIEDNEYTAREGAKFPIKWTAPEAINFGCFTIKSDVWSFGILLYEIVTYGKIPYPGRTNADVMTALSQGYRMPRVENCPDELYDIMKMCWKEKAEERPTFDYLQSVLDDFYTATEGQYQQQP
In short: (§4)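 Radiometric catalytic assay: compounds incubated with kinase, substrate, cofactors and ³²P- or ³³P-γ-ATP. Reactions spotted onto filter paper that binds the labeled product, giving a direct measure of inhibition of catalytic activity without modified substrates or coupling enzymes.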

c-Src = molecular target: T11, c-Src (Homo sapiens, UniProt P12931); test: HotSpot in vitro kinase radiometric assay; type: biochemical; settings: c-Src; 10uM; ATP 15 uM; Data 1, Data 2; read-out: % Enzyme Activity (relative to DMSO controls)
T11 construct: purchased Reaction Biology (HotSpot contract assay)
T11 sequence (P12931 whole entry): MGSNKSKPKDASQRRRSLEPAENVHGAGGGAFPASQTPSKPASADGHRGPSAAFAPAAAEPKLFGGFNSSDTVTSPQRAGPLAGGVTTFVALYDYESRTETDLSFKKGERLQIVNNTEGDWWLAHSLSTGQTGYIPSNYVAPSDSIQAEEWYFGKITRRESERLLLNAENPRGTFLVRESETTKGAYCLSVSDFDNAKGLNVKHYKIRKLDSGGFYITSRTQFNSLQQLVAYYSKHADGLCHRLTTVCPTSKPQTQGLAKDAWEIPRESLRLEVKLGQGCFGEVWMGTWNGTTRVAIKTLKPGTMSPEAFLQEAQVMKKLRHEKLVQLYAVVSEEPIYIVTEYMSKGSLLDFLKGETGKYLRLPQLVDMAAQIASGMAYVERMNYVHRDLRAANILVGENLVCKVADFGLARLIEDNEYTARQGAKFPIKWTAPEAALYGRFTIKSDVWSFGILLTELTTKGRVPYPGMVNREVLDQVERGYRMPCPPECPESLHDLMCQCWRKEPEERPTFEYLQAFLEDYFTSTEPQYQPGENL
In short: as §4

BLK = molecular target: T12, BLK (Homo sapiens, UniProt P51451); test: HotSpot in vitro kinase radiometric assay; type: biochemical; settings: BLK; 10uM; ATP 10 uM; Data 1, Data 2; read-out: % Enzyme Activity (relative to DMSO controls)
T12 construct: purchased Reaction Biology (HotSpot contract assay)
T12 sequence (P51451 whole entry): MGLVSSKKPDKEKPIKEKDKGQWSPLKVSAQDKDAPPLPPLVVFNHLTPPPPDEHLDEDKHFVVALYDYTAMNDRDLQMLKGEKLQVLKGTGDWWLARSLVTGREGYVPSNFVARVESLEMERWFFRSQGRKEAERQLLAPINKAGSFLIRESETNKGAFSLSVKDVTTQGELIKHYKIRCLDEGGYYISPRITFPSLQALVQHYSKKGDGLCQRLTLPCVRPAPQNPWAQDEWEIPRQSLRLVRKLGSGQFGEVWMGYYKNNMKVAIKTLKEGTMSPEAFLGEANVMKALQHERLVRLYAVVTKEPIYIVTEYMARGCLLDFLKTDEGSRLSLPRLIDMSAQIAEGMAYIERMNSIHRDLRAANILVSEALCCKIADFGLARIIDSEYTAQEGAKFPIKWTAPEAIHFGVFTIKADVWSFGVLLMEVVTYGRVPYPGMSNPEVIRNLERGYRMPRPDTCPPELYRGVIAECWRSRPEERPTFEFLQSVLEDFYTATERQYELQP
In short: as §4

Q: Which results are given for `Nc1ncnc2c1ncn2[C@@H]1O[C@H](COP(=O)(O)OP(=O)(O)OP(=O)(O)O)[C@@H](O)[C@H]1O` [ATP-Mg]?
A: Kd (ABL1 [1]): 37 to 99 µM; Kd (DDR1 [2]): > 1000 µM; Kd (ABL2): 423 µM

Q: For `C[C@@H]1C[C@H]2O[C@@H]2/C=C\C=C\C(=O)Cc2c(Cl)c(O)cc(O)c2C(=O)O1` [Radicicol], which IC50 [3] is on record?
A: The IC50 was 0.635 µM.

Q: And the remaining activity at 10 µM (YES/YES1)?
A: The remaining activity at 10 µM was 103%.

Q: And the IC50 [4]?
A: Its IC50 is 230 to 400 µM.

Q: What about the remaining activity at 10 µM (TRKC) of the same molecule?
A: Its remaining activity at 10 µM is 98.6%.

Q: And the remaining activity at 10 µM (ABL1 [5])?
A: Its remaining activity at 10 µM is 106%.

Q: And the “activity against the 16-kinase panel” value (16-kinase panel)?
A: The value was “inactive”.

Q: And the remaining activity at 10 µM (ABL2/ARG)?
A: The remaining activity at 10 µM was 117%.

Q: What about the remaining activity at 10 µM (FYN) of the same molecule?
A: The remaining activity at 10 µM was 110%.

Q: What about the remaining activity at 10 µM (PASK) of the same molecule?
A: Its remaining activity at 10 µM is 94.4%.

Q: What about the remaining activity at 10 µM (TRKA) of the same molecule?
A: Its remaining activity at 10 µM is 106%.

Q: What about the Kd [6] of the same molecule?
A: Its Kd is 715 µM.

Q: And the remaining activity at 10 µM (LCK)?
A: Its remaining activity at 10 µM is 119%.

Q: And the remaining activity at 10 µM (FGR)?
A: Its remaining activity at 10 µM is 112%.

Q: And the remaining activity at 10 µM (PEAK1)?
A: The remaining activity at 10 µM was 104%.

Q: What about the remaining activity at 10 µM (DDR1 [7]) of the same molecule?
A: Its remaining activity at 10 µM is 105%.

Q: What about the remaining activity at 10 µM (LYN B) of the same molecule?
A: The remaining activity at 10 µM was 114%.

Q: And the remaining activity at 10 µM (c-Src)?
A: Its remaining activity at 10 µM is 96.8%.

Q: And the remaining activity at 10 µM (BLK)?
A: The remaining activity at 10 µM was 104%.
